Data published in US20220323455A1, “FUSED HETEROCYCLIC DERIVATIVES AS ANTIVIRAL AGENTS” (priority 2019, published 2022).

Legend:
[1] = system: HBV; assay: HBV replication inhibition assay (BDNA assay) in HepG2.2.15 cells; type: cell-based, Hepatitis B virus; conditions: 6 days, encapsidated HBV DNA in supernatant
In short: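 HepG2.2.15 cells were dosed with serially diluted compound (0.5% DMSO), with compound and medium renewed at day 3. Day-6 supernatants were DNase-treated and proteinase K-lysed, and encapsidated HBV DNA was quantified by branched-DNA assay. Percent inhibition was set against DMSO controls and EC50 obtained by nonlinear fit.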

[2] = system: HBV; assay: Anti-HBV activity in HepG2.117 cell line (intracellular HBV DNA, real-time PCR); type: cell-based; conditions: Hepatitis B virus, read-out: HBV-AVE-HepG2.117 EC50 (μM, mean value)
Method: The anti HBV activity was measured using the HepG2.117 cell line, a stable, inducibly HBV producing cell line, which replicates HBV in the absence of doxicycline (Tet-off system). The HepG2 cell line is available from ATCC® under number HB-8065. Transfection of the HepG2 cell line can be as described in Sun and Nassal 2006 Journal of Hepatology 45 (2006) 636-645 “Stable HepG2- and Huh7-based human hepatoma cell lines for efficient regulated expression of infectious hepatitis B virus”.
For the antiviral assay, HBV replication was induced, followed by a treatment with serially diluted compound in 96-well plates. After 3 days of treatment, the antiviral activity was determined by quantification of intracellular HBV DNA using real-time PCR and an HBV specific primer set and probe.

[3] = Cytotoxicity in HepG2.117 cells (ATPlite Luminescence Assay); type: cell-based; conditions: human, incubated for 3 days, cell viability, mean value, read-out: TOX-HepG2.117 CC50 (μM, mean value)
Method: Cytotoxicity of the compounds was tested using HepG2 or HepG2.117 cells, incubated for 3 days in the presence of compounds. The viability of the cells was assessed using the PERKIN ELMER ATPlite Luminescence Assay System.”

[4] = 72 h, HepG2.117 cells, 3 days of treatment, intracellular HBV DNA, mean value

Compound	EC50 [1]	EC50 [2, 4]	CC50 at 3 days [3]	EC50 ([1]; Hepatitis B virus, HepG2.2.15, 144 h)	EC50 ([2]; HepG2.117, 72 h)
O=C(Nc1ccnc(C(F)F)c1F)N1CCc2nn3c(c2C1)C(F)(F)CC(O)CC3 (single isomer, unassigned) [Example 142, (S*)—N-(2-(Difluoromethyl)-3-fluoropyridin-4-yl)-11,11-difluoro-9-hydroxy-3,4,8,9,10,11-hexahydro-1H-pyrido[4′,3′:3,4]pyrazolo[1,5-a]azepine-2(7H)-carboxamide]	46 nM	–	–	–	–
C[C@@H]1Cc2nn3c(c2CN1C(=O)c1ccc(Cl)c(Cl)c1)C(F)(F)CC[C@@H](O)C3 (single isomer, unassigned) [Example C8, (3,4-Dichlorophenyl)[(3R,8*R)-11,11-difluoro-8-hydroxy-3-methyl-1,3,4,7,8,9,10,11-octahydro-2H-pyrido[4′,3′:3,4]pyrazolo[1,5-a]azepin-2-yl]methanone]	–	0.019 µM	> 50 µM	–	–
C[C@@H]1Cc2nn3c(c2CN1C(=O)c1ccc(Cl)c(Cl)c1)C(F)(F)CC[C@H](O)C3 (single isomer, unassigned) [Example C9, (3,4-Dichlorophenyl)[(3R,8*S)-11,11-difluoro-8-hydroxy-3-methyl-1,3,4,7,8,9,10,11-octahydro-2H-pyrido[4′,3′:3,4]pyrazolo[1,5-a]azepin-2-yl]methanone]	–	0.018 µM	> 50 µM	–	–
C#C[C@]1(O)CCC(F)(F)c2c3c(nn2C1)C[C@@H](C)N(C(=O)c1ccc(Cl)c(Cl)c1)C3 (single isomer, unassigned) [Example C10, (3,4-Dichlorophenyl)[(3R,8*R)-8-ethynyl-11,11-difluoro-8-hydroxy-3-methyl-1,3,4,7,8,9,10,11-octahydro-2H-pyrido[4′,3′:3,4]pyrazolo[1,5-a]azepin-2-yl]methanone]	–	0.078 µM	36.9 µM	–	–
C#C[C@@]1(O)CCC(F)(F)c2c3c(nn2C1)C[C@@H](C)N(C(=O)c1ccc(Cl)c(Cl)c1)C3 (single isomer, unassigned) [Example C11, (3,4-Dichlorophenyl)[(3R,8*S)-8-ethynyl-11,11-difluoro-8-hydroxy-3-methyl-1,3,4,7,8,9,10,11-octahydro-2H-pyrido[4′,3′:3,4]pyrazolo[1,5-a]azepin-2-yl]methanone]	–	0.257 µM	33.8 µM	–	–
C[C@@H]1Cc2nn3c(c2CN1C(=O)c1ccc(Cl)c(Cl)c1)C(F)(F)CC[C@@H](CO)C3 (single isomer, unassigned) [Example C12, (3,4-Dichlorophenyl)[(3R,8*R)-11,11-difluoro-8-(hydroxymethyl)-3-methyl-1,3,4,7,8,9,10,11-octahydro-2H-pyrido[4′,3′:3,4]pyrazolo[1,5-a]azepin-2-yl]methanone]	–	0.048 µM	32.7 µM	–	–
C[C@@H]1Cc2nn3c(c2CN1C(=O)c1ccc(Cl)c(Cl)c1)C(F)(F)CC[C@H](CO)C3 (single isomer, unassigned) [Example C13, (3,4-Dichlorophenyl)[(3R,8*S)-11,11-difluoro-8-(hydroxymethyl)-3-methyl-1,3,4,7,8,9,10,11-octahydro-2H-pyrido[4′,3′:3,4]pyrazolo[1,5-a]azepin-2-yl]methanone]	–	< 0.195 µM	33.6 µM	–	–
C[C@@H]1Cc2nn3c(c2CN1C(=O)c1ccc(Cl)c(Cl)c1)C(F)(F)CC[C@@H](C(C)(C)O)C3 (single isomer, unassigned) [Example C14, (3,4-Dichlorophenyl)[(3R,8*R)-11,11-difluoro-8-(2-hydroxypropan-2-yl)-3-methyl-1,3,4,7,8,9,10,11-octahydro-2H-pyrido[4′,3′:3,4]pyrazolo[1,5-a]azepin-2-yl]methanone]	–	< 0.195 µM	5.76 µM	–	–
CC1Cc2nn3c(c2CN1C(=O)Nc1ccc(F)c(C#N)c1)C(F)(F)C[C@H](CO)CC3 (stereo partly shown) [Example 131]	–	–	–	3 nM	–
COc1ccc(CN2CCn3nc4c(c3C(F)(F)C2)CN(C(=O)c2ccc(Cl)c(Cl)c2)[C@H](C)C4)cc1 [Example C1, (3,4-Dichlorophenyl){(3R)-11,11-difluoro-9-[(4-methoxyphenyl)methyl]-3-methyl-1,3,4,7,8,9,10,11-octahydro-2H-pyrido[4′,3′:3,4]pyrazolo[1,5-d][1,4]diazepin-2-yl}methanone]	–	0.274 µM	15.7 µM	–	–
C[C@@H]1Cc2nn3c(c2CN1C(=O)c1ccc(Cl)c(Cl)c1)C(F)(F)CNCC3 [Example C2, (3,4-Dichlorophenyl)[(3R)-11,11-difluoro-3-methyl-1,3,4,7,8,9,10,11-octahydro-2H-pyrido[4′,3′:3,4]pyrazolo[1,5-d][1,4]diazepin-2-yl]methanone]	–	0.088 µM	> 50 µM	–	–
C[C@@H]1Cc2nn3c(c2CN1C(=O)c1ccc(Cl)c(Cl)c1)C(F)(F)CN(C)CC3 [Example C3, (3,4-Dichlorophenyl)[(3R)-11,11-difluoro-3,9-dimethyl-1,3,4,7,8,9,10,11-octahydro-2H-pyrido[4′,3′:3,4]pyrazolo[1,5-d][1,4]diazepin-2-yl]methanone]	–	0.032 µM	> 50 µM	–	–
C[C@@H]1Cc2nn3c(c2CN1C(=O)c1ccc(Cl)c(Cl)c1)C(F)(F)CN(S(C)(=O)=O)CC3 [Example C4, (3,4-Dichlorophenyl)[(3R)-11,11-difluoro-9-(methanesulfonyl)-3-methyl-1,3,4,7,8,9,10,11-octahydro-2H-pyrido[4′,3′:3,4]pyrazolo[1,5-d][1,4]diazepin-2-yl]methanone]	–	0.052 µM	> 50 µM	–	–
C[C@@H]1Cc2nn3c(c2CN1C(=O)c1ccc(Cl)c(Cl)c1)C(F)(F)C(O)CCC3 (stereo partly drawn) [Example C6, (3,4-Dichlorophenyl)[(3R)-11,11-difluoro-10-hydroxy-3-methyl-1,3,4,7,8,9,10,11-octahydro-2H-pyrido[4′,3′:3,4]pyrazolo[1,5-a]azepin-2-yl]methanone]	–	3.28 µM	> 50 µM	–	–
C[C@@H]1Cc2nn3c(c2CN1C(=O)c1ccc(Cl)c(Cl)c1)C(F)(F)C(Oc1ccc(C#N)cc1)CCC3 (stereo partly drawn) [Example C7, 4-{[(3R)-2-(3,4-Dichlorobenzoyl)-11,11-difluoro-3-methyl-1,3,4,7,8,9,10,11-octahydro-2H-pyrido[4′,3′:3,4]pyrazolo[1,5-a]azepin-10-yl]oxy}benzonitrile]	–	–	> 50 µM	–	2.38 µM
CC(=O)NCC1CCC(F)(F)c2c3c(nn2C1)CCN(C(=O)c1ccc(Cl)c(Cl)c1)C3 (stereo not shown) [Example C15, N-{[2-(3,4-dichlorobenzoyl)-11,11-difluoro-1,3,4,7,8,9,10,11-octahydro-2H-pyrido[4′,3′:3,4]-pyrazolo[1,5-a]azepin-8-yl]methyl}acetamide]	–	0.221 µM	> 50 µM	–	–
COC(=O)NCC1CCC(F)(F)c2c3c(nn2C1)CCN(C(=O)c1ccc(Cl)c(Cl)c1)C3 (stereo not shown) [Example C16, Methyl {[2-(3,4-dichlorobenzoyl)-11,11-difluoro-1,3,4,7,8,9,10,11-octahydro-2H-pyrido-[4′,3′:3,4]pyrazolo[1,5-a]azepin-8-yl]methyl}carbamate]	–	0.177 µM	38.2 µM	–	–
O=C(c1ccc(Cl)c(Cl)c1)N1CCc2nn3c(c2C1)C(F)(F)CCC(CNC(=O)C(F)(F)F)C3 (stereo not shown) [Example C17, N-{[2-(3,4-Dichlorobenzoyl)-11,11-difluoro-1,3,4,7,8,9,10,11-octahydro-2H-pyrido[4′,3′:3,4]-pyrazolo[1,5-a]azepin-8-yl]methyl}-2,2,2-trifluoroacetamide]	–	–	20 µM	–	0.326 µM
